Data on one compound can be found in patent US4680311A, “Method for the treatment of systemic mycosis” (Taisho Pharmaceutical Co., Ltd., priority 1985, dated 1987).

Read-outs that look alike come from different tables or passages of the source.

A short description of one data set: Acute toxicity in mice. It is filed as in vivo. As to conditions: mouse, in vivo, mice. The source says:
(§1) This finding leads the inventors to possible usefulness of this substance for the therapy of human cases of candidiasis and other systemic mycoses. This substance is an extremely specific antimycotic agent in that it quite differs in chemical structure from any existing antimycotic agents.

Another data set relates to mice. Put plainly: Acute toxicity in mice. The class given is in vivo.
From the text: as §1

Data set [1] relates to Candida albicans TIMM 0239. Put plainly: Test Example 1: survival of mice with systemic Candida albicans infection. As to conditions: for Survival rate: 50 mg/kg once daily, 5 days, observed 10 days postinfection, control 0/8. It is filed as in vivo, Candida albicans TIMM 0239 in female SPF Crj:CD-1 (ICR) mice. How it is done:
(§2) Female SPF mice Crj:CD-1 (ICR) strain, 4 weeks of age, weighing 18 g±1 g, were used as test animals. One loopful organisms of Candida albicans TIMM 0239 grown on Sabouraud's glucose agar slants were inoculated into Sabouraud's glucose broth containing 0.5% yeast extract. Then cultures were grown aerobically at 37° C. for 18 hours. The organisms were harvested from the cultures, washed twice with sterilized physiological saline, and finally suspended in saline. A total number of organisms was counted in a Burker-Turk hemocytometer. Thus prepared cell suspension was adjusted to contain 10^6 cells/ml, 0.2 ml of which was then injected into the tail vein in each mouse. Infected mice were allocated randomly to different groups. Each group consisted of eight mice.
(§3) (S)-2-amino-5-hydroxy-4-oxopentanoicacid was dissolved in sterilized physiological saline. The mice in the treated groups received the solution of this compound in a dose of 50 mg per kg mouse body weight once daily via an intravenous, subcutaneous, intraperitoneal or oral route for 5 consecutive days, starting on the day of infection. The first treatment was given immediately after a challenge of Candida albicans. The untreated control animals were intravenously given the same volume of saline in place of the test compound solution. The animals were observed daily for 10 days postinfection.

In data set [2] the test system is Candida albicans. The class given is in vivo, Candida albicans TIMM 0239 in female SPF Crj:CD-1 (ICR) mice. The conditions noted are these: for Survival rate / Average viable counts recovered (per mouse): twice daily, 14 days; for Survival rate: control 0/5; for Average viable counts recovered (per mouse): kidneys, control 4.87 × 10^7. The protocol: as §2, §3
The same experimental conditions as for Test Example 1 were employed, except that all groups of five animals were infected with 1.0×10^6 organisms and treated with either 25, 50 or 100 mg/kg of the test compound twice daily for 14 consecutive days. Duration of observation period was two weeks after infection.
The criteria to evaluate efficacy of the test compound include survival rate and viable counts of Candida albicans recovered from the kidneys of infected animals. Both kidneys were excised from all the animals at the end of the experimental period, homogenized and cultured on Sabouraud's glucose agar plates for assay of viable counts.

Data set [3] concerns Candida albicans. As to the kind of experiment: protective and therapeutic efficacy in mice experimentally infected with Candida albicans. It is filed as in vivo. The protocol: as §2
as §3, with “postinfection. […]” for “postinfection.”

Data set [4] relates to pathogenic human tubercle bacilli. The conditions noted are these: A. Miyake, Chem. Pharm. Bull., 8, 1071 (1960); cited from earlier work.
In the next data set the test system is fungi. As to conditions: A. Miyake, Chem. Pharm. Bull., 8, 1071 (1960); cited from earlier work.

Broadly, the LD50 is the dose expected to kill half of the subjects tested. Higher therefore signals a less toxic substance. Take `N[C@@H](CC(=O)CO)C(=O)O` [(S)-2-amino-5-hydroxy-4-oxopentanoicacid]: the median lethal dose (LD50) was no less than 5000 mg/kg in the data set “Acute toxicity in mice” (ip), no less than 6000 mg/kg in “Acute toxicity in mice” (po) and no less than 5000 mg/kg in “Acute toxicity in mice” (sc). The “toxicity compared with existing antimycotic drugs” value in the data set with mice (acute toxicity, mice) is “lower than that of any existing antimycotic drugs”. Moreover, the “tolerability in experimental animals” value with mice (mouse, in vivo) was “very high tolerability”. The Survival rate was 0/8 in data set [1] (intraperitoneal); 4/8 in data set [1] (intravenous); 4/8 in data set [1] (oral); 0/8 in data set [1] (subcutaneous); 1/5 in the data set with Candida albicans [2] (25 mg/kg oral); 2/5 in the data set with Candida albicans [2] (50 mg/kg oral). For the same compound, the Survival rate in the data set on Candida albicans [2] (100 mg/kg oral) is recorded as 5/5. For the same compound, the therapeutic efficacy result in data set [1] (especially by intravenous or oral route, murine systemic candidiasis) is “significant therapeutic efficacy”. Besides, the “Average viable counts recovered (per mouse)” value in the data set on Candida albicans [2] (25 mg/kg oral) was 1.45 × 10^7 per mouse; in the data set on Candida albicans [2] (50 mg/kg oral), 1.41 × 10^6 per mouse; in the data set with Candida albicans [2] (100 mg/kg oral), 2.41 × 10^5 per mouse. The “correlation between therapeutic efficacy and oral dose” value with Candida albicans [2] (oral, 25, 50 or 100 mg/kg) is on record as “close correlation”. For the same compound, the “protective and therapeutic efficacy” value in the data set on Candida albicans [3] was “significant protective and therapeutic efficacy”. Besides, the “activity against pathogenic human tubercle bacilli” value in data set [4] is on record as “highly active”. In addition, in the data set with fungi, the “in vitro antimycotic activity” value is given as “does hardly exert an in vitro antimycotic activity”.
